Laboratory results reported in ChEMBL document CHEMBL1201862, “PubChem BioAssay data set” (2004).
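Where inhibition never reached the appropriate level, the endpoint shown equals the highest concentration tested. Otherwise, values were interpolated linearly from a five-concentration, 48-hour dose response in 96-well plates. Abbreviation: GI50, concentration required for 50% inhibition of growth.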 Calls of active or inactive are those of the source. Rule as the data show it: active = GI50 up to about 1.1 µM and inactive = higher.

Key:
Assay in all cases: DTP human tumour cell line panel, 48 h
HOP-92 = system: HOP-92
MDA-MB-231 = system: MDA-MB-231
DMS-114 = system: DMS-114
K562 = system: K562
ACHN = system: ACHN
SR = system: SR
NCI-H522 = system: NCI-H522
T47D = system: T47D
UACC-62 = system: UACC-62
A549 = system: A549
KM12 = system: KM12
SK-OV-3 = system: SK-OV-3
SNB-75 = system: SNB-75
HT-29 = system: HT-29
BT-549 = system: BT-549
MDA-N = system: MDA-N
SF-268 = system: SF-268
SK-MEL-28 = system: SK-MEL-28
EKVX = system: EKVX
COLO 205 = system: COLO 205

SMILES	GI50 (HOP-92)	GI50 (MDA-MB-231)	GI50 (DMS-114)	GI50 (K562)	GI50 (ACHN)	GI50 (SR)	GI50 (NCI-H522)	GI50 (T47D)	GI50 (UACC-62)	GI50 (A549)	GI50 (KM12)	GI50 (SK-OV-3)	GI50 (SNB-75)	GI50 (HT-29)	GI50 (BT-549)	GI50 (MDA-N)	GI50 (SF-268)	GI50 (SK-MEL-28)	GI50 (EKVX)	GI50 (COLO 205)
C[N+](C)(C)CC1CCC(C[N+](C)(C)C)C1=O (stereo unspecified)	920 nM (active)	19600 nM (inactive)	2340 nM (inactive)	359 nM (active)	1820 nM (inactive)	400 nM (active)	200 nM (active)	3420 nM (inactive)	8530 nM (inactive)	18700 nM (inactive)	4650 nM (inactive)	23400 nM (inactive)	1950 nM (inactive)	1560 nM (inactive)	17000 nM (inactive)	4940 nM (inactive)				
O=P1(NCCCl)OCCCN1CCCl (stereo unspecified) [IFOSFAMIDE]	333000 nM (inactive)	> 500000 nM (inactive)	399000 nM (inactive)	373000 nM (inactive)	> 479000 nM (inactive)	> 500000 nM (inactive)	300000 nM (inactive)	> 500000 nM (inactive)	363000 nM (inactive)	401000 nM (inactive)	406000 nM (inactive)	379000 nM (inactive)	334000 nM (inactive)	406000 nM (inactive)	> 500000 nM (inactive)	> 500000 nM (inactive)	351000 nM (inactive)	385000 nM (inactive)	352000 nM (inactive)	394000 nM (inactive)
CCN(CC)CCCNc1ccc2ncn3c4ccc(O)cc4c(=O)c1c23	718 nM (active)	1880 nM (inactive)	3370 nM (inactive)	1040 nM (active)	272 nM (active)	171 nM (active)	851 nM (active)	> 10000 nM (inactive)	3210 nM (inactive)	231 nM (active)	3850 nM (inactive)	527 nM (active)	871 nM (active)	649 nM (active)		6080 nM (inactive)	1660 nM (inactive)	12400 nM (inactive)	7410 nM (inactive)	908 nM (active)
NC(CS)C(=O)NCCNc1ccc(NCCNC(=O)C(N)CS)c2c1C(=O)c1c(O)ccc(O)c1C2=O (stereo unspecified)	6.38 nM (active)	433 nM (active)	1.43 nM (active)	46.8 nM (active)	8.65 nM (active)	< 1 nM (active)	27.9 nM (active)	166 nM (active)	22.3 nM (active)	2.51 nM (active)	135 nM (active)	12.4 nM (active)	23.6 nM (active)	89.7 nM (active)	327 nM (active)	359 nM (active)	24.6 nM (active)	628 nM (active)	320 nM (active)	422 nM (active)
COc1ccc2nc3ccccc3c(NCCCN(C)CCCl)c2c1	185 nM (active)	641 nM (active)	311 nM (active)	136 nM (active)	105 nM (active)	< 12.8 nM (active)	101 nM (active)	35.8 nM (active)	230 nM (active)	235 nM (active)	426 nM (active)	406 nM (active)	224 nM (active)	99.8 nM (active)	1220 nM (inactive)	311 nM (active)	155 nM (active)	521 nM (active)	938 nM (active)	147 nM (active)
COc1cc(C(=O)C/C(CCC(=O)Nc2ccccc2[N+](=O)[O-])=N\NC(N)=O)ccc1O	> 100000 nM (inactive)		> 100000 nM (inactive)	> 100000 nM (inactive)	> 100000 nM (inactive)	> 100000 nM (inactive)	> 100000 nM (inactive)		> 100000 nM (inactive)	> 100000 nM (inactive)	> 100000 nM (inactive)	> 100000 nM (inactive)	> 100000 nM (inactive)	> 100000 nM (inactive)			> 100000 nM (inactive)	> 100000 nM (inactive)	32900 nM (inactive)	> 100000 nM (inactive)
